Measured values published in ChEMBL document CHEMBL4184195, “Influence of hydrocarbon-stapling on membrane interactions of synthetic antimicrobial peptides” (Bioorg Med Chem, 2018).
Converted amounts (≈) assume the structure as drawn. The source made the active and inactive calls. The calls are words filed in the database; no cut-off is given here. Bridge positions count the residues as written; N and C are the ends. Square brackets hold non-standard residues; d marks the D form. Peptide text beside a SMILES is read from it. S5 = C=CCCC[C@](C)(N)C(=O)O

Tests used:
[1] = Hemolytic activity in human RBC at 4 uM after 1 hr; assay type: ADME, cell-based, Erythrocyte; conditions: red blood cells (erythrocytes), read-out: Activity
Escherichia coli [2] = experiment: Antibacterial activity against Escherichia coli BL21 after 20 hrs by two fold serial dilution method; assay type: functional; conditions: BL21, 20 h
Lipid bilayer [3] = experiment: Binding affinity to POPC liposome membranes assessed as reduction in blue shift at 10 uM by tryptophan fluorescence-based fluorometry
Erythrocyte = experiment: Hemolytic activity in human RBC after 1 hr; assay type: ADME, cell-based
Escherichia coli [4] = experiment: Growth inhibition of Escherichia coli BL21 at 2 uM after 2 hrs relative to 6K-F17; assay type: functional; conditions: for inhibition of growth at 2 µM: BL21, BL21, 2 h, read-out: GI
Escherichia coli [5] = experiment: Time dependent inhibition of Escherichia coli BL21 at 2 uM; assay type: functional, organism-based
[6] = Therapeutic index, ratio of MHC for human RBC to MIC for Escherichia coli BL21; assay type: toxicity; conditions: read-out: TI
Lipid bilayer [7] = experiment: Binding affinity to Escherichia coli large unilamellar vesicles assessed as reduction in blue shift at 10 uM by tryptophan fluorescence-based fluorometry
[8] = Binding affinity to SDS detergent micelles assessed as reduction in blue shift at 10 uM by tryptophan fluorescence-based fluorometry
Escherichia coli [9] = experiment: Time dependent inhibition of Escherichia coli BL21 at 4 uM; assay type: functional, organism-based
Escherichia coli [10] = experiment: Time dependent inhibition of Escherichia coli BL21 at 8 uM; assay type: functional, organism-based
Lipid bilayer [11] = experiment: Binding affinity to POPC liposome membranes assessed as change in spectral lineshape by 31P solid-state NMR spectroscopic analysis
Lipid bilayer [12] = experiment: Binding affinity to Escherichia coli large unilamellar vesicles assessed as change in spectral line shape by 31P solid-state NMR spectroscopic analysis

Molecule	MIC (Escherichia coli [2]) [µM]	Activity (Lipid bilayer [3])	Activity (Lipid bilayer [7])	Activity [8]	hemolysis at 1 h, 4 µM [1] [%]	MHC (Erythrocyte) [µM]	inhibition of growth at 2 µM (Escherichia coli [4]) [%]	inhibition (Escherichia coli [5])	selectivity ratio [6]	inhibition (Escherichia coli [9])	inhibition (Escherichia coli [10])	Activity (Lipid bilayer [11])	Activity (Lipid bilayer [12])	growth inhibition (GI) (Escherichia coli [4])
C[C@H](NC(=O)[C@H](C)NC(=O)[C@H](Cc1ccccc1)NC(=O)[C@]1(C)CCC/C=C\CCC[C@](C)(NC(=O)[C@H](Cc2ccccc2)NC(=O)[C@H](C)NC(=O)[C@H](C)NC(=O)[C@H](CCCCN)NC(=O)[C@H](CCCCN)NC(=O)[C@H](CCCCN)NC(=O)[C@H](CCCCN)NC(=O)[C@H](CCCCN)NC(=O)[C@@H](N)CCCCN)C(=O)N[C@@H](C)C(=O)N[C@@H](Cc2c[nH]c3ccccc23)C(=O)N[C@@H](C)C(=O)N1)C(N)=O (H-KKKKKKAAF[S5]AWA[S5]FAA-NH2; staple (Z) 10-14)	1 (≈ 1.94 µg/mL)	inactive	inactive	Active	2	3.8	≤ 40	Active	3.8	–	–	–	–	–
C[C@H](NC(=O)CNC(=O)[C@H](Cc1ccccc1)NC(=O)[C@]1(C)CCC/C=C\CCC[C@](C)(NC(=O)[C@H](Cc2ccccc2)NC(=O)CNC(=O)[C@H](C)NC(=O)[C@H](CCCCN)NC(=O)[C@H](CCCCN)NC(=O)[C@H](CCCCN)NC(=O)[C@H](CCCCN)NC(=O)[C@H](CCCCN)NC(=O)[C@@H](N)CCCCN)C(=O)N[C@@H](C)C(=O)N[C@@H](Cc2c[nH]c3ccccc23)C(=O)N[C@@H](C)C(=O)N1)C(N)=O (H-KKKKKKAGF[S5]AWA[S5]FGA-NH2; staple (Z) 10-14)	1.6 (≈ 3.06 µg/mL)	inactive	Active	Active	–	15	≤ 40	–	9.4	Active	–	–	–	–
H-KKKKKKAAFAAWAAFAA-NH2	1.6	inactive	Active	Active	–	320	–	–	200	Active	–	Active	Active	Active

More lines, in order of falling MIC (Escherichia coli [2]), values ahead:

MIC (Escherichia coli [2]) [µM]	Activity (Lipid bilayer [3])	Activity (Lipid bilayer [7])	Activity [8]	Molecule	hemolysis at 1 h, 4 µM [1] [%]	MHC (Erythrocyte) [µM]	inhibition of growth at 2 µM (Escherichia coli [4]) [%]	inhibition (Escherichia coli [5])	selectivity ratio [6]	inhibition (Escherichia coli [9])	inhibition (Escherichia coli [10])	Activity (Lipid bilayer [11])	Activity (Lipid bilayer [12])	growth inhibition (GI) (Escherichia coli [4])
4.2 (≈ 7.99 µg/mL)	inactive	Active	Active	C[C@H](NC(=O)CNC(=O)[C@H](Cc1ccccc1)NC(=O)[C@]1(C)CCC/C=C\CCC[C@](C)(NC(=O)[C@H](Cc2ccccc2)NC(=O)CNC(=O)[C@H](C)NC(=O)[C@H](CCCCN)NC(=O)[C@H](CCCCN)NC(=O)[C@H](CCCCN)NC(=O)[C@H](CCCCN)NC(=O)[C@H](CCCCN)NC(=O)[C@@H](N)CCCCN)C(=O)N[C@@H](C)C(=O)N[C@@H](Cc2c[nH]c3ccccc23)C(=O)NCC(=O)N1)C(N)=O (H-KKKKKKAGF[S5]AWG[S5]FGA-NH2; staple (Z) 10-14)	–	128	≤ 40	–	30.8	–	Active	–	–	–
4.2 (≈ 8.17 µg/mL)	inactive	Active	inactive	C[C@H](NC(=O)CNC(=O)[C@H](Cc1ccccc1)NC(=O)[C@]1(C)CCC/C=C\CCC[C@](C)(NC(=O)[C@H](Cc2ccccc2)NC(=O)CNC(=O)[C@H](CC(N)=O)NC(=O)[C@H](CCCCN)NC(=O)[C@H](CCCCN)NC(=O)[C@H](CCCCN)NC(=O)[C@H](CCCCN)NC(=O)[C@H](CCCCN)NC(=O)[C@@H](N)CCCCN)C(=O)N[C@@H](C)C(=O)N[C@@H](Cc2c[nH]c3ccccc23)C(=O)NCC(=O)N1)C(N)=O (H-KKKKKKNGF[S5]AWG[S5]FGA-NH2; staple (Z) 10-14)	–	587	≤ 40	–	140	–	Active	inactive	Active	–
